Results as given in patent publication US12077501B2, “Compounds and compositions for intracellular delivery of agents” (ModernaTX, Inc., priority 2017, dated 2024).

Key:
[1] = system: hepatocytes and Kupffer cells; test: Mouse liver immunohistochemistry (IHC) with GFP mRNA (FIGS. 11A, 11B); format: in vivo; settings: LDLR knockout mouse liver, 8h after intravenous administration, 0.5 mpk (FIG. 11B), in contrast to MC3
Description: FIGS. 11A and 11B are a pair of images comparing the results of a mouse liver immunohistochemistry (IHC) using mRNA expressing green fluorescent protein (GFP) after administration of nanoparticle compositions containing Compound 4 and MC3.

hEPO expression [2] = test: hEPO expression in Cynomolgus monkeys; format: in vivo; settings: 0.05 mg/kg
Procedure: Nanoparticle compositions of the disclosure, including an mRNA encoding hEPO and comprising a miR binding site, were administered to Cynomolgus monkeys at a dose of 0.05 mg/kg via a 60 min intravenous infusion.

[3] = Characteristics of nanoparticle compositions formulated with PEG-DMG or PEG 1 over 4 weeks; format: physicochemical
Procedure: Formulations were prepared according to Table 13 and included an mRNA encoding hEPO and the particle size, polydispersity index and encapsulation efficiency were recorded on day 1 (week 1), day 8 (week 2), day 15 (week 3), and day 22 (week 4), of the study.

[4] = Purity at start and after storage for 65 h at 25 °C or 37 °C; format: physicochemical
[5] = Lipid clearance: % dose remaining in liver of CD-1 mice; format: in vivo; settings: intravenous, 0.5 mg/kg, CD-1 mouse, Table 8a
Procedure, shortened: (§1)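 Nanoparticle compositions containing the test compound were dosed to CD-1 mice at 0.5 mpk, and hEPO expression was measured. Clearance data were collected from the same compositions.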

hEPO expression [6] = test: hEPO expression in CD-1 mice compared with MC3; format: in vivo
Procedure, shortened: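 Read-out was hEPO expression in CD-1 mice after a 0.5 mpk dose of nanoparticle composition including the test compound. An MC3 composition served as reference.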

hEPO expression [7] = test: hEPO (miR126 + miR142) mRNA expression, Tables 8b-8e; format: in vivo
[8] = Encapsulation efficiency of RNA (QUANT-IT RIBOGREEN RNA assay); format: physicochemical; settings: row marked **: Formulated with lipid:Chol:DOPE:PEG 1 30:38.5:30:1.5
Procedure, shortened: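 Samples diluted to about 5 μg/mL RNA in TE buffer pH 7.5, treated with buffer or 2% Triton X-100 for 15 min at 37° C, then stained with RiboGreen (1:100). Fluorescence at about 480/520 nm, blank-subtracted; free RNA fraction is intact over Triton-disrupted signal.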

[9] = Lipid clearance: % dose remaining, Tables 7c and 8b-8e (species not given); format: in vivo
Procedure, shortened: as §1

[10] = Particle size and polydispersity index of nanoparticle compositions (Zetasizer Nano ZS); format: physicochemical; settings: row marked **: Formulated with lipid:Chol:DOPE:PEG 1 30:38.5:30:1.5
Procedure: A Zetasizer Nano ZS (Malvem Instruments Ltd, Malvem, Worcestershire, UK) can be used to determine the particle size, the polydispersity index (PDI) and the zeta potential of the nanoparticle compositions in 1×PBS in determining particle size and 15 mM PBS in determining zeta potential.

luciferase = test: Luciferase expression in LDLR −/− knockout and wild-type mice (FIG. 9A); format: in vivo, mouse; settings: 0.05 mpk, 0.25 mpk and 0.5 mpk (FIG. 9A)
Description: FIG. 9A is a bar graph showing expression of luciferase induced by administration of nanoparticle compositions including Compound 11 at dosages of 0.05 mpk, 0.25 mpk, and 0.5 mpk to LDLR −/− knockout and wild-type mice.

hEPO = hEPO expression in rats after i.v. administration of nanoparticle compositions (FIGS. 8A, 8B); format: in vivo, rat
Description: PBS (phosphate buffered saline) is used as control. FIG. 8A compares the hEPO concentration after administration of nanoparticle compositions containing Compound 23, Compound 11, KL22, and MC3 at 2 mpk, i.v. administration. […] FIG. 8B illustrates the results of a dose response study using Compound 20, KL22, and MC3 at dose of 0.2, 0.5 and 1 mpk. […] In FIG. 8A, the numbers 1-5 refer to compositions containing the following: 1: Compound 23, 2: Compound 11, 3: KL22; 4: MC3; 5: PBS. In FIG. 8B, the numbers […] refer to compositions containing the following: 1: Compound 20, 0.2 mpk; 2: Compound 20, 0.5 mpk; 3: Compound 20, 1 mpk; 4: KL22, 0.2 mpk; 5: KL22, 0.5 mpk; 6: KL22, 1 mpk; 7: MC3, 0.2 mpk; 8: MC3, 0.5 mpk; 9: MC3, 1 mpk; 10: PBS.

LDL-c = LDL-c levels in LDLR knockout mice after mRNA encoding the LDL receptor (FIG. 9B); format: in vivo, mouse; settings: mRNAs encoding the LDL receptor, Compound 11 at 0.5 and 1 mpk (FIG. 9B)
rats = test: Tolerability / toxicity in rats (FIGS. 8A, 8B); format: in vivo; settings: for toxicity: 2 mg/kg dose
luciferase expression = test: Expression of Luc in different organs (liver, lung, spleen, femur), bioluminescence; format: in vivo; settings: mice, intravenous, 0.5 mpk, 6 hours
Procedure: The efficacy of the nanoparticle compositions presented in Tables 1, la, 17-1, 19-1, 20-1 and 21-1 was further evaluated by measuring the expression of modified luciferase in the liver, lung, spleen, and femur upon administration of a given composition. Formulations were administered intravenously to mice (n=3) at a dosage of 0.5 mpk and bioluminescence measured after 6 hours. The standard MC3 formulation and a PBS control were also tested.

Luc expression = Luc expression in CD-1 mice compared with MC3; format: in vivo; settings: ratio to MC3, Table 7a
Description: In contrast, hEPO expression in rats induced by administration of a nanoparticle composition including a compound according to one of formulae (I), (Ia1)-(Ia6), (Ib), (II), (IIa), (III), and (IIIa) was substantially […] than that measured for MC3. […] Tables 7c and 7d show additional protein expressions and clearance data from compositions with various compounds disclosed herein as compared to with MC3. Tables 7e, 7f and 7g show hEPO expression data in CD-1 mice at a dose of 0.5 mpk.

LDL levels = LDL levels in LDLr-/- mice relative to untreated; format: in vivo; settings: intravenous, Table 7b
[11] = Week 1, 40:20:38.5:1.5 Lipid:DOPE:Chol:PEG 1
[12] = Week 1, 40:20:38.5:1.5 Lipid:DOPE:Chol:PEG-DMG
[13] = Week 2, 40:20:38.5:1.5 Lipid:DOPE:Chol:PEG 1
[14] = Week 2, 40:20:38.5:1.5 Lipid:DOPE:Chol:PEG-DMG
[15] = Week 3, 40:20:38.5:1.5 Lipid:DOPE:Chol:PEG 1
[16] = Week 3, 40:20:38.5:1.5 Lipid:DOPE:Chol:PEG-DMG
[17] = Week 4, 40:20:38.5:1.5 Lipid:DOPE:Chol:PEG 1
[18] = Week 4, 40:20:38.5:1.5 Lipid:DOPE:Chol:PEG-DMG

## CCCCCCCCCN(CCCCCCCCC)CCN(CCCCCCCCC)CC(=O)N1CCN(C(=O)CN(CCCCCCCCC)CCCCCCCCC)CC1 [Compound 4, 2-(Dinonylamino)-1-(4-(N-(2-(dinonylamino)ethyl)-N-nonylglycyl)piperazin-1-yl)ethan-1-one]
[1]
  GFP protein expression in liver cell types (IHC): less protein expression in Kupffer cells
hEPO expression [2]
  levels of hEPO expression compared to MC3: improved levels of hEPO expressions
[3]; [11]
  EE (%): 98%
  PDI: 0.22
  Size (nm): 101.5 nm
[3]; [12]
  EE (%): 99%
  PDI: 0.23
  Size (nm): 79.9 nm
[3]; [13]
  EE (%): 97%
  PDI: 0.21
  Size (nm): 104.1 nm
[3]; [14]
  EE (%): 99%
  PDI: 0.21
  Size (nm): 79.9 nm
[3]; [15]
  EE (%): 97%
  PDI: 0.2
  Size (nm): 100.4 nm
[3]; [16]
  EE (%): 99%
  PDI: 0.22
  Size (nm): 77.3 nm
[3]; [17]
  EE (%): 97%
  PDI: 0.2
  Size (nm): 101.9 nm
[3]; [18]
  EE (%): 99%
  PDI: 0.21
  Size (nm): 73.6 nm
[4]; after storage for 65 h at 25° C., no shaking
  Purity % 25° C. no shaking t = 65 h: 99%
[4]; after storage for 65 h at 37° C., shaking
  Purity % 37° C. shaking t = 65 h: 99%
[4]; beginning of the study, 25° C.
  Purity % t = 0 h: 98%
[5]
  % Dose Remaining 24 hr: 60.36%
hEPO expression [6]; intramuscular, title: 0.01 mg/kg, Table 7f
  AUC (p/s*h) CD-1 mice 0.5 mpk: 366551 p/s*h
hEPO expression [6]; subcutaneous, 0.5 mg/kg, Table 7g
  AUC (p/s*h) CD-1 mice 0.5 mpk: 859874 p/s*h
hEPO expression [7]; Table 8b
  AUC: 6.7e+07 pg·h/mL
hEPO expression [7]; Table 8c
  AUC: 8.47e+07 pg·h/mL
hEPO expression [7]; Table 8d
  AUC: 1.83e+09 pg·h/mL
hEPO expression [7]; lipid:Chol:PEG 1 50:47.5:2.5, Table 8e
  AUC (mIU/mL*h): 2.76E+08 mIU/mL*h
[8]; Table 1e
  EE (%): 98.6%
[8]; Table 1f
  EE (%): 98.8%
[8]; Table 1d
  EE (%): 99.1%
[9]; Table 8b
  % Dose Remaining (liver, 24 h): 39.23%
[9]; Table 8c
  % Dose Remaining (liver, 24 h): 37.05%
[9]; Table 8d
  % Dose Remaining (liver, 24 h): 43.02%
[10]; Table 1e
  PDI: 0.19
  Size (nm): 99.2 nm
[10]; Table 1f
  PDI: 0.21
  Size (nm): 111.5 nm
[10]; Table 1d
  PDI: 0.23
  Size (nm): 101.5 nm

## CCCCCCCCCCCCN(CCCCCCCCCCCC)CCN(CCCCCCCCCCCC)CC(=O)N1CCN(C(=O)CN(CCCCCCCCCCCC)CCCCCCCCCCCC)CC1 [Compound 11, 2-(Didodecylamino)-1-(4-(N-(2-(didodecylamino)ethyl)-N-dodecylglycyl)piperazin-1-yl)ethan-1-one]
luciferase
  LDLr dependence of luciferase expression: LDLr independent lipid
hEPO; rats, 2 mpk, i.v. administration (FIG. 8A)
  hEPO concentration after administration of nanoparticle compositions: comparable to MC3
LDL-c
  LDL-c levels: found to drop
rats; 2 mpk, i.v. (FIG. 8A), compared to KL22
  tolerability: improved tolerability as compared to KL22

## CCCCCCCCCCCCCCN(CCCCCCCCCCCCCC)CCN1CCN(CCN(CCCCCCCCC)CCN(CCCCCCCCC)CCCCCCCCC)CC1 [Compound 20, N^1-(2-(4-(2-(Ditetradecylamino)ethyl)piperazin-1-yl)ethyl)-N^1,N^2,N^2-trinonylethane-1,2-diamine]
Luciferase expression
  total flux, rank among the compositions of Table 3: highest total flux

## CCCCCCCCCCCCN(CCCCCCCCCCCC)CCN(CCCCCCCCCCCC)CCN1CCN(CCN(CCCCCCCCC)CCCCCCCCC)CC1 [Compound 23, N^1-(2-(4-(2-(Dinonylamino)ethyl)piperazin-1-yl)ethyl)-N^1,N^2,N^2-tridodecylethane-1,2-diamine]
Luc expression
  Lipid/MC3 Luc CD-1 (mice): several fold higher
rats
  toxicity: toxic

## CCCCCCCCCCCCN(CCCCCCCCCCCC)CCN(CCCCCCCCCCCC)CCN1CCN(CCN(CCCCCCCCCCCC)CCCCCCCCCCCC)CC1 [KL22, N1-[2-(didodecylamino)ethyl]-N1,N4,N4-tridodecyl-1,4-piperazinediethanamine, reference compound]
LDL levels
  LDL levels lipid/untreated LDLr−/− mice 0.5 mpk, LDLr: 0.51
hEPO; rats (FIGS. 8A and 8B)
  hEPO expression levels in rats: do not express hEPO in rats
rats
  toxicity: toxic
